Source: US5753617A, “Peptide inhibitors of cellular adhesion” (Centocor, Inc., priority 1995, dated 1998)
Where “and” joins values, the source holds several entries; their conditions need not be identical. Identical values can stand only once. Like-named read-outs stand apart in the source and are kept apart here. Where a SMILES comes first, the peptide text is derived from it. Bridges are numbered along the chain shown (N, C = ends). [ ]: non-standard residue; d: D form.

Key:
[1] = target: T1, P-selectin (Homo sapiens, UniProt P16109); assay: Inhibition of human neutrophil adhesion to purified P-selectin immobilized on plastic wells; assay type: cell-based; settings: inhibiting the binding of human neutrophils to P-selectin
T1 construct: P-selectin is isolated from human platelet lysates; from tissue; host or cells: human platelets (outdated platelet packs from a blood bank)
T1 sequence (P16109 42-830): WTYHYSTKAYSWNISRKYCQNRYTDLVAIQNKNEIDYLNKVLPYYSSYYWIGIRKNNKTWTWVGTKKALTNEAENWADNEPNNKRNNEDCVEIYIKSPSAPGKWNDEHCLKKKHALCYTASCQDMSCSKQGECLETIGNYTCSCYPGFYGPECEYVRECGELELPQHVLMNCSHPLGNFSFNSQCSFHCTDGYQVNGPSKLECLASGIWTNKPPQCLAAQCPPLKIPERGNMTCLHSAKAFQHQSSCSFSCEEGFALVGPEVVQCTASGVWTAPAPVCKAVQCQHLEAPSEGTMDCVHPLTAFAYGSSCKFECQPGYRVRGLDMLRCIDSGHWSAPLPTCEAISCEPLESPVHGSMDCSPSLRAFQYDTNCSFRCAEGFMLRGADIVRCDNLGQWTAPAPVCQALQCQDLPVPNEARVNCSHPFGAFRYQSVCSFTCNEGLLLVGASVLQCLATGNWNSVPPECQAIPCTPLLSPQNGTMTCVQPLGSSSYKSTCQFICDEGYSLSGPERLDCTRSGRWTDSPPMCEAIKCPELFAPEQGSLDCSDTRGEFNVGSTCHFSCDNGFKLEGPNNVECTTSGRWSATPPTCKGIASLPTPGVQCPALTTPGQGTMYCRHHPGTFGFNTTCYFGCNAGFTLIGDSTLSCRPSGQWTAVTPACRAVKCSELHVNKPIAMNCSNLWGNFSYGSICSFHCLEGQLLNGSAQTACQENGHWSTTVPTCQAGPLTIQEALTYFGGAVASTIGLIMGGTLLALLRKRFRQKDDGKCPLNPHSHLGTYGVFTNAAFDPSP
How it was run: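 Isolated human neutrophils (2×10^5 per well) in HBSS with Ca2+/Mg2+ and HSA added to wells coated overnight at 4° C with platelet-derived P-selectin (5 micrograms/mL), HSA-blocked; 20 min at 22° C. Nonadherent cells removed by inverted centrifugation at 150 g; adherent cells quantified by myeloperoxidase activity.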

[2] = disulfide bond, water

| IC50 [1] | SMILES | also measured |
| --- | --- | --- |
| 46.2 µM and 78.3 µM | CC(C)[C@@H](NC(=O)[C@@H](Cc1c[nH]c2ccccc12)NC(=O)[C@H](NC(=O)[C@@H](Cc1c[nH]c2ccccc12)NC(=O)[C@H]1CSSC[C@@H](NC(=O)[C@@H](CCCCN)NC(=O)[C@H](N)CCCNC(=N)N)C(=O)NCC(=O)N[C@@H](CCC(N)=O)C(=O)N1)[C@H](C)O)C(N)=O [(65)] (H-[dR][dK][dC]GQ[dC][dW][dT][dW][dV]-NH2; disulfide 3-6) | ring closure, yield of all isomers ([2]; from CC(C)[C@@H](NC(=O)[C@@H](Cc1c[nH]c2ccccc12)NC(=O)[C@H](NC(=O)[C@@H](Cc1c[nH]c2ccccc12)NC(=O)[C@@H](CS)NC(=O)[C@H](CCC(N)=O)NC(=O)CNC(=O)[C@@H](CS)NC(=O)[C@@H](CCCCN)NC(=O)[C@H](N)CCCNC(=N)N)[C@H](C)O)C(N)=O, Cu wire, NH4OH (printed NH2OH), 3.16 mM, 20.0 h): 6.1% |
| 287 µM | CC(C)[C@@H](NC(=O)[C@@H](Cc1c[nH]c2ccccc12)NC(=O)[C@H](NC(=O)[C@@H](Cc1c[nH]c2ccccc12)NC(=O)[C@H]1CSSC[C@@H](NC(=O)[C@@H](CCCCN)NC(=O)[C@H](N)CCCNC(=N)N)C(=O)NCC(=O)N[C@@H](CCC(=O)O)C(=O)N1)[C@H](C)O)C(N)=O [(66)] (H-[dR][dK][dC]GE[dC][dW][dT][dW][dV]-NH2; disulfide 3-6) | ring closure, yield of all isomers ([2]; from CC(C)[C@@H](NC(=O)[C@@H](Cc1c[nH]c2ccccc12)NC(=O)[C@H](NC(=O)[C@@H](Cc1c[nH]c2ccccc12)NC(=O)[C@@H](CS)NC(=O)[C@H](CCC(=O)O)NC(=O)CNC(=O)[C@@H](CS)NC(=O)[C@@H](CCCCN)NC(=O)[C@H](N)CCCNC(=N)N)[C@H](C)O)C(N)=O, Cu wire, NH4OH, 3.16 mM, 20.0 h): 7.4% |
| 3.7 µM | CC[C@H](C)[C@@H]1NC(=O)CNC(=O)[C@H](NC(=O)[C@@H](CCCCN)NC(=O)[C@H](N)CCCNC(=N)N)CSSC[C@H](C(=O)N[C@H](Cc2c[nH]c3ccccc23)C(=O)N[C@@H](C(=O)N[C@H](Cc2c[nH]c3ccccc23)C(=O)N[C@@H](C(N)=O)C(C)C)[C@H](C)O)NC1=O [(68)] (H-[dR][dK][dC]GI[dC][dW][dT][dW][dV]-NH2; disulfide 3-6) | ring closure, yield of all isomers ([2]; from CC[C@H](C)[C@H](NC(=O)CNC(=O)[C@@H](CS)NC(=O)[C@@H](CCCCN)NC(=O)[C@H](N)CCCNC(=N)N)C(=O)N[C@H](CS)C(=O)N[C@H](Cc1c[nH]c2ccccc12)C(=O)N[C@@H](C(=O)N[C@H](Cc1c[nH]c2ccccc12)C(=O)N[C@@H](C(N)=O)C(C)C)[C@H](C)O, Cu wire, NH4OH, 3.2 mM, 20.0 h): 2.8% |
| 146 µM | CC(C)C[C@@H]1NC(=O)CNC(=O)[C@H](NC(=O)[C@@H](CCCCN)NC(=O)[C@H](N)CCCNC(=N)N)CSSC[C@H](C(=O)N[C@H](Cc2c[nH]c3ccccc23)C(=O)N[C@@H](C(=O)N[C@H](Cc2c[nH]c3ccccc23)C(=O)N[C@@H](C(N)=O)C(C)C)[C@H](C)O)NC1=O [(69)] (H-[dR][dK][dC]GL[dC][dW][dT][dW][dV]-NH2; disulfide 3-6) | ring closure, yield of all isomers ([2]; from CC(C)C[C@H](NC(=O)CNC(=O)[C@@H](CS)NC(=O)[C@@H](CCCCN)NC(=O)[C@H](N)CCCNC(=N)N)C(=O)N[C@H](CS)C(=O)N[C@H](Cc1c[nH]c2ccccc12)C(=O)N[C@@H](C(=O)N[C@H](Cc1c[nH]c2ccccc12)C(=O)N[C@@H](C(N)=O)C(C)C)[C@H](C)O, DMSO, 0.252 mM, 25.0 °C, 96.0 h): 8.3% |
| 85.9 µM | CC(C)[C@@H](NC(=O)[C@@H](Cc1c[nH]c2ccccc12)NC(=O)[C@H](NC(=O)[C@@H](Cc1c[nH]c2ccccc12)NC(=O)[C@H]1CSSC[C@@H](NC(=O)[C@@H](CCCCN)NC(=O)[C@H](N)CCCNC(=N)N)C(=O)N[C@@H](CCCCN)C(=O)N[C@@H](Cc2ccccc2)C(=O)N1)[C@H](C)O)C(N)=O [(70)] (H-[dR][dK][dC]KF[dC][dW][dT][dW][dV]-NH2; disulfide 3-6) | ring closure, yield of all isomers ([2]; from CC(C)[C@@H](NC(=O)[C@@H](Cc1c[nH]c2ccccc12)NC(=O)[C@H](NC(=O)[C@@H](Cc1c[nH]c2ccccc12)NC(=O)[C@@H](CS)NC(=O)[C@H](Cc1ccccc1)NC(=O)[C@H](CCCCN)NC(=O)[C@@H](CS)NC(=O)[C@@H](CCCCN)NC(=O)[C@H](N)CCCNC(=N)N)[C@H](C)O)C(N)=O, DMSO, 0.708 mM, 48.0 h): 8.8% |
| 2000 µM | CC(C)[C@@H](NC(=O)[C@@H](Cc1c[nH]c2ccccc12)NC(=O)[C@H](NC(=O)[C@@H](Cc1c[nH]c2ccccc12)NC(=O)[C@H]1CSSC[C@@H](NC(=O)[C@@H](CCCCN)NC(=O)[C@H](N)CCCNC(=N)N)C(=O)NCC(=O)N[C@@H](CCCCN)C(=O)N1)[C@H](C)O)C(N)=O [(71)] (H-[dR][dK][dC]GK[dC][dW][dT][dW][dV]-NH2; disulfide 3-6) | ring closure, yield of all isomers ([2]; from CC(C)[C@@H](NC(=O)[C@@H](Cc1c[nH]c2ccccc12)NC(=O)[C@H](NC(=O)[C@@H](Cc1c[nH]c2ccccc12)NC(=O)[C@@H](CS)NC(=O)[C@H](CCCCN)NC(=O)CNC(=O)[C@@H](CS)NC(=O)[C@@H](CCCCN)NC(=O)[C@H](N)CCCNC(=N)N)[C@H](C)O)C(N)=O, DMSO, 0.181 mM, 72.0 h): 10.4% |
| 105 µM | CC(C)[C@@H](NC(=O)[C@@H](Cc1c[nH]c2ccccc12)NC(=O)[C@H](NC(=O)[C@H]1CCCN1C(=O)[C@H]1CSSC[C@@H](NC(=O)[C@@H](CCCCN)NC(=O)[C@H](N)CCCNC(=N)N)C(=O)NCC(=O)N[C@@H](Cc2ccccc2)C(=O)N1)[C@H](C)O)C(N)=O [(76)] (H-[dR][dK][dC]GF[dC][dP][dT][dW][dV]-NH2; disulfide 3-6) | ring closure, yield of all isomers ([2]; from CC(C)[C@@H](NC(=O)[C@@H](Cc1c[nH]c2ccccc12)NC(=O)[C@H](NC(=O)[C@H]1CCCN1C(=O)[C@@H](CS)NC(=O)[C@H](Cc1ccccc1)NC(=O)CNC(=O)[C@@H](CS)NC(=O)[C@@H](CCCCN)NC(=O)[C@H](N)CCCNC(=N)N)[C@H](C)O)C(N)=O, DMSO, 0.14 mM, 192.0 h): 20.6% |
| 7.7 µM | CC(C)[C@@H](NC(=O)[C@@H](Cc1ccccc1)NC(=O)[C@H](NC(=O)[C@@H](Cc1c[nH]c2ccccc12)NC(=O)[C@H]1CSSC[C@@H](NC(=O)[C@@H](CCCCN)NC(=O)[C@H](N)CCCNC(=N)N)C(=O)NCC(=O)N[C@@H](Cc2ccccc2)C(=O)N1)[C@H](C)O)C(N)=O [(79)] (H-[dR][dK][dC]GF[dC][dW][dT][dF][dV]-NH2; disulfide 3-6) | ring closure, yield of all isomers ([2]; from CC(C)[C@@H](NC(=O)[C@@H](Cc1ccccc1)NC(=O)[C@H](NC(=O)[C@@H](Cc1c[nH]c2ccccc12)NC(=O)[C@@H](CS)NC(=O)[C@H](Cc1ccccc1)NC(=O)CNC(=O)[C@@H](CS)NC(=O)[C@@H](CCCCN)NC(=O)[C@H](N)CCCNC(=N)N)[C@H](C)O)C(N)=O, DMSO, 0.101 mM): 15.2% |
| 26.4 µM | CC(C)[C@@H](NC(=O)[C@@H](Cc1c[nH]c2ccccc12)NC(=O)[C@H](NC(=O)[C@@H](Cc1c[nH]c2ccccc12)NC(=O)[C@H]1CSSC[C@@H](NC(=O)[C@@H](CCCCN)NC(=O)[C@H](N)CCCNC(=N)N)C(=O)N2CCC[C@H]2C(=O)N[C@@H](Cc2ccccc2)C(=O)N1)[C@H](C)O)C(N)=O [(84)] (H-[dR][dK][dC]PF[dC][dW][dT][dW][dV]-NH2; disulfide 3-6) | ring closure, yield of all isomers ([2]; from CC(C)[C@@H](NC(=O)[C@@H](Cc1c[nH]c2ccccc12)NC(=O)[C@H](NC(=O)[C@@H](Cc1c[nH]c2ccccc12)NC(=O)[C@@H](CS)NC(=O)[C@H](Cc1ccccc1)NC(=O)[C@@H]1CCCN1C(=O)[C@@H](CS)NC(=O)[C@@H](CCCCN)NC(=O)[C@H](N)CCCNC(=N)N)[C@H](C)O)C(N)=O, air (copper wire, ammonium acetate pH 8.5), 0.756 mM, 25.0 °C): 12% |
| 22.3 µM | CC(C)[C@@H]1NC(=O)CNC(=O)[C@H](NC(=O)[C@@H](CCCCN)NC(=O)[C@H](N)CCCNC(=N)N)CSSC[C@H](C(=O)N[C@H](Cc2c[nH]c3ccccc23)C(=O)N[C@@H](C(=O)N[C@H](Cc2c[nH]c3ccccc23)C(=O)N[C@@H](C(N)=O)C(C)C)[C@H](C)O)NC1=O [(89)] (H-[dR][dK][dC]GV[dC][dW][dT][dW][dV]-NH2; disulfide 3-6) | ring closure, yield of all isomers ([2]; from CC(C)[C@H](NC(=O)CNC(=O)[C@@H](CS)NC(=O)[C@@H](CCCCN)NC(=O)[C@H](N)CCCNC(=N)N)C(=O)N[C@H](CS)C(=O)N[C@H](Cc1c[nH]c2ccccc12)C(=O)N[C@@H](C(=O)N[C@H](Cc1c[nH]c2ccccc12)C(=O)N[C@@H](C(N)=O)C(C)C)[C@H](C)O, DMSO, 0.387 mM, 25.0 °C, 72.0 h): 4% |
